The values below come from patent US12023335B2, “Method for treating pancreatic cancer” (PTC THERAPEUTICS, INC., priority 2018, dated 2024).

In one data set the target is T1, P-glycoprotein (Homo sapiens, UniProt P08183).
T1 construct: host or cells: MDCKII-mdr1 (canine kidney MDCKII cells; MDCKII-wt as control)
Briefly: P-glycoprotein substrate activity experiment (CC50 ratio MDCK-P-gp vs MDCK-WT). The class given is in vitro ADME. The following applies: 72 hours, CellTiter-Glo (FIG. 4b). As to the method: MDCKII-mdr1 and MDCKII-wt cells were purchased from the Netherlands Cancer Institute, NKI-AVL. The cells were cultivated in Dulbecco's modified essential medium (DMEM), supplemented with 10% FBS and 1% Penn-Strep, and used between passage 3-9. Cells were seeded at a density of 3×10^3 cells/well in 96-well tissue culture treated plates. After 4 hours to allow cells to attach, cells were treated with test compound in the presence or absence of the P-glycoprotein inhibitor Valspodar. The plates were incubated at 37° C., 5% CO2 for 72 hours and ATP was measured vialuminescence using CellTiter-Glo® reagent (Promega). (FIG. 4b)

Data set [1] relates to J1002VEH and J1002TAM cells. Briefly: Cell cycle analysis of J1002VEH and J1002TAM cells. The class given is cell-based, mouse. As to the method:
Cells were seeded into 12-well or 6-well plates such that 16 hours later they would be approximately 30-50% confluent. Cells were then treated for 24 hours with either DMSO (<0.003%), Compound 1 (100 nM or 1 μM), or 100 nM nocodazole (Sigma, M1404). Following treatment, cells were harvested and fixed in ice-cold 70% ethanol for a minimum of one hour. Following fixation, cells were re-suspended in PBS+2% FBS+3 μM DAPI (BioLegend, 422801) or 0.25 μg 7-AAD (BD Pharmingen, 559925), and analyzed on a MACSQuant® Analyzer 10 (Miltenyi Biotec) or BD LSR II™. For cell cycle analysis time course experiments, cells were prepared as described above, except treated for 24, 48, or 72 hours. Data was analyzed using FlowJo software. Percent populations in G2/M were identified using the univariate cell cycle platform offered by FlowJo software. Percent populations >4N were determined by gating above the 4N population of DMSO-treated cells. (FIG. 1b, FIG. 1c, FIG. 2a, FIG. 2b, FIG. 10e, and FIG. 10g)

Data set [2] deals with J1002VEH and J1002TAM cells. The data set can be described thus: Viability and dose response of J1002VEH and J1002TAM cells (AlamarBlue). The class given is cell-based, mouse. As to the method:
For proliferation curves, cells were plated in 96-well plates (Corning, 3603) and allowed to seed overnight. Replicate plates were plated for each time point since viability measurements were an endpoint procedure. The following day, cells were treated with Compound at indicated concentrations and treated with DMSO at the highest used concentration (always below 0.003%). Cells were treated for 96 hours, and viability was determined every 24 hours using AlamarBlue reagent (BioRad, BUF012B). Briefly, 10 μL of AlamarBlue was added to each well (100 μL), mixed briefly, and allowed to incubate at 37° C. and 5% CO2 for 4 hours. Following incubation, fluorescence was measured on a Promega multimode microplate reader. For analysis, background levels were subtracted from raw results, which were then normalized to be represented as a fold change compared to DMSO-treated cells on Day 0. All assays were carried out in at least triplicate with 4-8 technical replicates per treatment group, per experiment. (FIG. 1a and FIG. 10b)
For dose response curves, cells were plated in 96-well plates (Corning, 3603) and allowed to seed overnight. The following day, cells were treated with Compound 1. […] Cells were treated for 72 hours and then viability was determined using AlamarBlue reagent (BioRad, BUF012B). […] Following incubation, fluorescence was measured on a Promega multimode microplate reader. […]

Data set [3] deals with T2, tubulin from porcine brain (Sus scrofa, UniProt P02550+P02554).
T2 construct: which uses >99% pure tubulin from porcine brain; purchased Cytoskeleton #BK011P; host or cells: porcine brain (tissue-purified)
Briefly: Cell-free tubulin polymerization assay. The following applies: 0.12, 0.37, 1.11, 3.33 and 10 μM (FIGS. 11e, 11f). The data set is classed as biochemical. As to the method:
Assays were carried out according to manufacturer's recommendations using the fluorescence-based tubulin polymerization assay kit from Cytoskeleton (#BK011P) which uses >99% pure tubulin from porcine brain. All drugs used were dissolved in DMSO and then diluted in ultrapure water to 10× final concentration. Final percentage of DMSO was kept constant for all samples. Tubulin was prepared by resuspension at 2 mg/mL in 80 mM PIPES pH 6.9, 2.0 mM MgCl2, 0.5 mM EGTA, 1.0 mM GTP, 15% glycerol, and 10 μM fluorescent reporter. All drug samples (10×) were added to a pre-warmed half-area 96-well plate (Corning Costar, 3686) in duplicate, and then warmed to 37° C. for 1 min. Tubulin (50 μL/well) was then added to all wells, and the plate was placed in a plate reader pre-warmed to 37° C. The plate was mixed by medium, orbital shaking for 5 seconds, and fluorescence measured every 60 seconds for 90 minutes (Ex: 340-360+/−20 nm, Em: 410-460 nm+/−20 nm) in a BioTek Synergy 2 plate reader. Polymerization rates (fluorescence units/minute) were determined by measuring the maximal slope (by linear regression) of the linear portion of the growth phase of the polymerization curve. (FIG. 11e and FIG. 11f)

The test system of another data set is Aspc1 cells. Briefly: Active caspase 3 apoptosis flow cytometry in Aspc1 cells. The data set is classed as cell-based, human. The following applies: 24, 48, 72 hours, relative to vehicle (FIGS. 3a, 3b). As to the method: For active Caspase-3 (ActCasp3) staining, the Caspase 3 (active) FITC Staining Kit (Abcam, ab65613) was used according to manufacturer's instructions. Cells were seeded in 12-well plates such that ˜16 hours later they would be approximately 50-60% confluent. […] Samples were analyzed on a BD LSR II™ and analyzed by FlowJo software. (FIG. 3a and FIG. 3b)
A general note: Flow cytometry measures light scatter and fluorescence of single cells or particles in a stream.

Structures are written as SMILES. Entries after “also recorded” stand apart in the source; their conditions may differ.

T2 sequence (P02554 whole entry): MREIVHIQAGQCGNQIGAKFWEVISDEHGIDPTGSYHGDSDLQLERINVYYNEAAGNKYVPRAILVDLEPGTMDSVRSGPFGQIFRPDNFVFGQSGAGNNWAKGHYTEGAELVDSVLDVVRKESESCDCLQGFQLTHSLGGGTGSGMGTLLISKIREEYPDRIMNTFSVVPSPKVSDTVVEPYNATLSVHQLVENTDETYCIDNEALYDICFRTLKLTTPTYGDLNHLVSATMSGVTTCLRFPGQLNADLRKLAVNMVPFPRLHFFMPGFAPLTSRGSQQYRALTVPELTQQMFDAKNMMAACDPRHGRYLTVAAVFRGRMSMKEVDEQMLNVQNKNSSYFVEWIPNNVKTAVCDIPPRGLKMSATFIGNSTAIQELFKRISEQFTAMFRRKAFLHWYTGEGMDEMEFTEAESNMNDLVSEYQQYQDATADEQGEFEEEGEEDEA
T2 sequence (P02550 whole entry): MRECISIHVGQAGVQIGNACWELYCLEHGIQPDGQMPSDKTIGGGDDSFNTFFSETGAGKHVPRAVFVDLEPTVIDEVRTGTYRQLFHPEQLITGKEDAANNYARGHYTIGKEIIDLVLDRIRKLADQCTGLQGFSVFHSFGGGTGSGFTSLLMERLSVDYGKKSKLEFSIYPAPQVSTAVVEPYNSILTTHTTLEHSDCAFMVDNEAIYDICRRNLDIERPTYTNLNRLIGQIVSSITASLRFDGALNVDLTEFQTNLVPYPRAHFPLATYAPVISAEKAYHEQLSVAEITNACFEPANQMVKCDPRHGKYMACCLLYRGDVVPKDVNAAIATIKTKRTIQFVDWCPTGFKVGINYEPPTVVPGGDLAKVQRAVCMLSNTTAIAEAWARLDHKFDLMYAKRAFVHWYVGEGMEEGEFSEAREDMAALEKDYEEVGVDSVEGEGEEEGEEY
T1 sequence (P08183 whole entry): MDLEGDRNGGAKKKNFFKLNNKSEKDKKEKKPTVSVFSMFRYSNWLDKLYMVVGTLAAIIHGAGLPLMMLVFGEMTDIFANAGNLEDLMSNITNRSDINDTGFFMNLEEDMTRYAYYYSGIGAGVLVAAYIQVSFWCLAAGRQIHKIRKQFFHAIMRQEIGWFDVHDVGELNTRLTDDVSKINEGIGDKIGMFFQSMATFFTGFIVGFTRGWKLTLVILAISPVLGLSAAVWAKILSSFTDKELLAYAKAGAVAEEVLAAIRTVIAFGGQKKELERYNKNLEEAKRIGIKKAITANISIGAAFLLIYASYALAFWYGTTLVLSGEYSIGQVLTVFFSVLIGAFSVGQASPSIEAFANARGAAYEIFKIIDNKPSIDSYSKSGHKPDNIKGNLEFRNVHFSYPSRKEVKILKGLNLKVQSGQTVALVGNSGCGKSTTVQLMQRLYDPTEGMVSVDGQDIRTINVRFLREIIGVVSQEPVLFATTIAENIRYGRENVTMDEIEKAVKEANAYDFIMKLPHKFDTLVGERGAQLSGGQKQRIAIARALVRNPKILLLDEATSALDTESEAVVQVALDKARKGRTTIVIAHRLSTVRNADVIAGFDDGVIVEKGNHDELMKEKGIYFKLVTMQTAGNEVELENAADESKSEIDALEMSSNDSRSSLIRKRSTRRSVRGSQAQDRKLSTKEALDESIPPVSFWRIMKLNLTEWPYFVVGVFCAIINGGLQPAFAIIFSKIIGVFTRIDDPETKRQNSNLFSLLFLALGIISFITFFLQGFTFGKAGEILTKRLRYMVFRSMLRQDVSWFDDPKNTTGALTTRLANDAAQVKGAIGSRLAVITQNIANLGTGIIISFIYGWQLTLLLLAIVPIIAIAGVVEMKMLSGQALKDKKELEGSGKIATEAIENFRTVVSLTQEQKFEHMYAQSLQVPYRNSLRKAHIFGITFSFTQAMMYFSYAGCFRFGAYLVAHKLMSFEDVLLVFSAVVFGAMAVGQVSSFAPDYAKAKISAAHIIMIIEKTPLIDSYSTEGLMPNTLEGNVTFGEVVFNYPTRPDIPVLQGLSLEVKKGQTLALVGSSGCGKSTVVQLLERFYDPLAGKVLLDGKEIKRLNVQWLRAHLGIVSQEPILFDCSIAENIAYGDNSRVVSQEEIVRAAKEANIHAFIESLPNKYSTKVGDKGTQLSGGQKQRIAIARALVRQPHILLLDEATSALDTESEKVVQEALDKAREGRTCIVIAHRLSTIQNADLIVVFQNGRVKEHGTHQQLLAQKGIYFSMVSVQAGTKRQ

With `Cc1nc2ccc(F)cc2n1-c1nc(N)c(F)c(Nc2ccc(C(F)(F)F)cc2)n1` [Compound 1, 5-fluoro-2-(6-fluoro-2-methyl-1H-benzo[d]imidazol-1-yl)-N4-[4-(trifluoromethyl)phenyl]pyrimidine-4,6-diamine], the “PGP substrate activity (ratio of CC50 values MDCK-P-gp vs MDCK-WT)” value on P-glycoprotein is recorded as “lack of P-glycoprotein (PGP) substrate activity; also recorded: do not function as a PGP substrate”. For the same molecule, the “cell cycle distribution / polyploidy of J1002VEH and J1002TAM cells” value in data set [1] (1.0 μM, 24 hours (FIGS. 10d-10g)) was “dose and time-dependent increase in the amount of BMI-1 dependent cells affected by polyploidy”. For the same molecule, the “BMI-1 hyperphosphorylation (conclusion from FIG. 10 data as a whole)” value in data set [1] (data taken as a whole) is given as “induces BMI-1 hyperphosphorylation indirectly as a result of mitotic arrest”. Further, the “relative viability of J1002VEH and J1002TAM cells” value in data set [2] (0.1 μM or 1.0 μM over 96 hours (FIG. 10b)) is “dose and time-dependent decrease in viability of cells dependent on BMI-1 protein expression”. Further, the “dose response in J1002VEH and J1002TAM cells” value in data set [2] (72 hours (FIG. 10c)) is “sub-M activity toward reduction in BMI-1 protein expression”. Moreover, the “tubulin polymerization (fluorescence units/minute)” value in data set [3] was “function as a microtubule polymerization inhibitor; also recorded: dose-dependent decrease in tubulin polymerization; also recorded: directly inhibits microtubule formation”. The “total apoptotic Aspc1 cells (active caspase 3+)” value in the data set with Aspc1 cells is “time-dependent increase in cell biomarkers that indicate a corresponding increase in cell apoptosis”.
